Experimental data as given in patent US4309559A, “Sulphonamides useful as pesticides” (FBC Limited, priority 1977, dated 1982).
Read-outs that look alike come from different tables or passages of the source.

Columns and labels:
[1] = test system: rice blast Pyricularia oryzae; format: in vivo; conditions: soil and leaves, 7 days, controls less than 5%
[2] = test system: potato blight Phytophthora infestans; format: in vivo; conditions: 500 ppm; 5 days; controls less than 5%

SMILES: CS(=O)(=O)N(CC#N)c1ccc(SC#N)cc1 [Example 141]
- % Control, rice blast ([1]; 2000 ppm): 84%

SMILES: CCS(=O)(=O)N(CC(=O)C(C)(C)C)c1c(C)cccc1C [Example 212, N-2-oxo-3,3-dimethylbutyl-2',6'-dimethyl-ethanesulphonanilide]
- % Control, rice blast ([1]; 2000 ppm): 80%

SMILES: CON=C(C)CN(c1c(C)cccc1C)S(C)(=O)=O [Example 249]
- % Control, rice blast ([1]; 500 ppm): 66%
- % Control, potato blight [2]: 74%
